# Results: US8420851B2, “Selective TR-β 1 agonist” (Cadila Healthcare Limited, priority 2006, dated 2013)
# What was measured:
# TR-β = molecular target: T1, TR-β (Homo sapiens, UniProt P10828); test: In vitro TR-β activity (in-house protocol); assay type: cell-based; details: for fold induction at 0.001 µM: Conc. 1 nM; for fold induction at 0.001 µM / fold induction at 0.01 µM / fold induction at 0.1 µM / fold induction at 1 µM: read-out: TR-β Fold Induction w.r.t T3(100 nm); for fold induction at 0.01 µM: Conc. 10 nM; for fold induction at 0.1 µM: Conc. 100 nM; for fold induction at 1 µM: Conc. 1000 nM
# T1 sequence (P10828 1-461): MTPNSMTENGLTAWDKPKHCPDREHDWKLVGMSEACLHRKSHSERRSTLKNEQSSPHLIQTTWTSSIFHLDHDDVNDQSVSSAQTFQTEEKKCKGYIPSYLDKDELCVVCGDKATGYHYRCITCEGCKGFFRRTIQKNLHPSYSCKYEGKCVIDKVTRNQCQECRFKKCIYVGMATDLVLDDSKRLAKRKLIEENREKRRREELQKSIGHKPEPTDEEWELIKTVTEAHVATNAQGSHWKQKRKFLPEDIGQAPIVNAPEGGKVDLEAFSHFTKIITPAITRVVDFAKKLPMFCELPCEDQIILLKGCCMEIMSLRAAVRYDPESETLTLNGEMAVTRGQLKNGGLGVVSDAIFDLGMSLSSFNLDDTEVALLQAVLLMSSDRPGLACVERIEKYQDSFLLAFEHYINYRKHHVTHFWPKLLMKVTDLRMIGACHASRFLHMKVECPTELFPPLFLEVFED
# Procedure: (§1) Invitro TR-α & TR-β activities were determined as per in-house protocols and the results of representative compounds are provided in tables 1 & 2 below as a proof of the efficacies of the novel class of compounds disclosed above.
# TR-α = molecular target: T2, TR-α (Homo sapiens, UniProt P10827); test: In vitro TR-α activity (in-house protocol); assay type: cell-based
# T2 sequence (P10827 1-410 isoform P10827-2): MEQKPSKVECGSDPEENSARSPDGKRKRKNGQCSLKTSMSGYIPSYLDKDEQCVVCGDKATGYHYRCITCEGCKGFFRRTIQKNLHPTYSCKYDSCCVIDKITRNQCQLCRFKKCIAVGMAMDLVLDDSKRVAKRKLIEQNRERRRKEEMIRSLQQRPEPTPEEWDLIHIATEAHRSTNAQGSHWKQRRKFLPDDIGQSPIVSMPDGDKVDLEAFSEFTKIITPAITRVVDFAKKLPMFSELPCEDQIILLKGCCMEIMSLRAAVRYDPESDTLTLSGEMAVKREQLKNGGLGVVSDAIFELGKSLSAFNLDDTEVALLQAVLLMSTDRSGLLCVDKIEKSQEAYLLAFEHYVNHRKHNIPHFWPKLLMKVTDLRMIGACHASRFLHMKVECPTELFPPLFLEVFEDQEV
# Procedure: as §1
SMILES,fold induction at 0.001 µM (TR-β),fold induction at 0.01 µM (TR-β),fold induction at 0.1 µM (TR-β),fold induction at 1 µM (TR-β),TR-α Fold Induction w.r.t T3(100 nm) (TR-α; Conc. 1 nM),TR-α Fold Induction w.r.t T3(100 nm) (TR-α; Conc. 10 nM),TR-α Fold Induction w.r.t T3(100 nm) (TR-α; Conc. 100 nM),TR-α Fold Induction w.r.t T3(100 nm) (TR-α; Conc. 1000 nM),EC50 (TR-β) [nM],EC50 (TR-α) [nM]
"CC(C)(C)c1cc(Oc2c(Cl)cc(N(CC(=O)O)CC(=O)O)cc2Cl)ccc1O [Example 34, {[4-(3-tert-Butyl-4-hydroxy-phenoxy)-3,5-dichloro-phenyl]-carboxymethyl-amino}-acetic acid]",8.37,21.3,51.1,55.7,12.66,26.23,62.95,53.76,,
"CC(C)(C)c1cc(Oc2c(Cl)cc(N(CC(=O)O)C(=O)Oc3ccc(O)cc3)cc2Cl)ccc1O [Example 35, [[4-(3-tert-Butyl-4-hydroxy-phenoxy)-3,5-dichloro-phenyl]-(4-hydroxy-phenoxycarbonyl)-amino]-acetic acid]",22.4,80.5,125,81.3,25.40,106.00,130.68,72.06,,
"Cc1cc(N(CC(=O)O)CC(=O)O)cc(C)c1Oc1ccc(O)c(C(C)C)c1 [Example 37, {Carboxymethyl-[4-(4-hydroxy-3-isopropyl-phenoxy)-3,5-dimethyl-phenyl]-amino}-acetic acid]",21.2,66.7,125,95.6,14.93,40.84,71.78,63.71,,
"CN(C)S(=O)(=O)c1cc(Oc2c(Cl)cc(N(CC(=O)O)C(=O)Oc3ccc(O)cc3)cc2Cl)ccc1O [Example 38, [[3,5-Dichloro-4-(3-dimethylsulfamoyl-4-hydroxy-phenoxy)-phenyl]-(4-hydroxy-phenoxycarbonyl)-amino]-acetic acid]",12.3,16.9,43.5,81.4,09.36,13.61,25.32,41.59,,
"O=C(O)CN(C(=O)Oc1ccc(O)cc1)c1cc(Cl)c(Oc2ccc(O)c(S(=O)(=O)N3CCCCC3)c2)c(Cl)c1 [Example 41, [{3,5-Dichloro-4-[4-hydroxy-3-(piperidine-1-sulfonyl)-phenoxy]-phenyl}-(4-hydroxy-phenoxycarbonyl)-amino]-acetic acid]",23.3,73.5,90,67,20.78,56.19,99.00,78.50,,
"Cc1cc(N(CC(=O)O)C(=O)Oc2ccc(O)cc2)cc(C)c1Oc1ccc(O)c(C(C)C)c1 [Example 42, [[4-(4-Hydroxy-3-isopropyl-phenoxy)-3,5-dimethyl-phenyl]-(4-hydroxy-phenoxycarbonyl)-amino]-acetic acid]",12.9,41.4,91.9,86,11.05,26.63,72.96,80.89,,
"O=C(O)CN(C(=O)Oc1ccc(O)cc1)c1cc(Cl)c(Oc2ccc(O)c(C(=O)c3ccc(Cl)cc3)c2)c(Cl)c1 [Example 44, [{3,5-Dichloro-4-[3-(4-chloro-benzoyl)-4-hydroxy-phenoxy]-phenyl}-(4-hydroxy-phenoxycarbonyl)-amino]-acetic acid]",,,,,,,,,14.8,84.8
"CC(C)NS(=O)(=O)c1cc(Oc2c(Cl)cc(N(CC(=O)O)C(=O)Oc3ccc(O)cc3)cc2Cl)ccc1O [Example 45, [[3,5-Dichloro-4-(4-hydroxy-3-isopropylsulfamoyl-phenoxy)-phenyl]-(4-hydroxy-phenoxycarbonyl)-amino]-acetic acid]",13.5,18.7,47.1,88.9,10.48,12.02,23.05,50.62,,
"O=C(O)CN(C(=O)Oc1ccc(O)cc1)c1cc(Cl)c(Oc2ccc(O)c(C(=O)c3cccc(Cl)c3)c2)c(Cl)c1 [Example 47, [{3,5-Dichloro-4-[3-(3-chloro-benzoyl)-4-hydroxy-phenoxy]-phenyl}-(4-hydroxy-phenoxycarbonyl)-amino]-acetic acid]",,,,,,,,,11.3,16.4
"CCc1cc(Oc2c(Cl)cc(N(CC(=O)O)C(=O)Oc3ccc(O)cc3)cc2Cl)ccc1O [Example 48, [[3,5-Dichloro-4-(3-ethyl-4-hydroxy-phenoxy)-phenyl]-(4-hydroxy-phenoxycarbonyl)-amino]-acetic acid]",9.02,19.4,47.7,37.6,08.16,17.51,34.61,45.08,,
"O=C(O)CN(C(=O)Oc1ccc(O)cc1)c1cc(Cl)c(Oc2ccc(O)c(-c3ccccc3)c2)c(Cl)c1 [Example 49, [[3,5-Dichloro-4-(6-hydroxy-biphenyl-3-yloxy)-phenyl]-(4-hydroxy-phenoxycarbonyl)-amino]-acetic acid]",,,,,,,,,10.3,38
"O=C(O)CN(C(=O)Oc1ccc(O)cc1)c1cc(Cl)c(Oc2ccc(O)c(Cc3ccccc3)c2)c(Cl)c1 [Example 50, [[4-(3-Benzyl-4-hydroxy-phenoxy)-3,5-dichloro-phenyl]-(4-hydroxy-phenoxycarbonyl)-amino]-acetic acid]",,,,,,,,,6.2,23.3
"O=C(O)CN(C(=O)Oc1ccc(O)cc1)c1cc(Cl)c(Oc2ccc(O)c(S(=O)(=O)NC3CCC3)c2)c(Cl)c1 [Example 51, [[3,5-Dichloro-4-(3-cyclobutylsulfamoyl-4-hydroxy-phenoxy)-phenyl]-(4-hydroxy-phenoxycarbonyl)-amino]-acetic acid]",8.68,17,54.6,102,08.05,14.43,32.52,83.34,,
"O=C(O)CN(C(=O)Oc1ccc(O)cc1)c1cc(Br)c(Oc2ccc(O)c(S(=O)(=O)NC3CC4CCC3C4)c2)c(Br)c1 (centres unmarked) [Example 53, [{4-[3-(Bicyclo[2.2.1]hept-2-ylsulfamoyl)-4-hydroxy-phenoxy]-3,5-dibromo-phenyl}-(4-hydroxy-phenoxycarbonyl)-amino]-acetic acid]",11,12.9,27,91.7,11.19,12.00,17.15,50.30,,
"O=C(O)CN(C(=O)Oc1ccc(O)cc1)c1cc(Cl)c(Oc2ccc(O)c(C(=O)c3ccc(F)cc3)c2)c(Cl)c1 [Example 55, [{3,5-Dichloro-4-[3-(4-fluoro-benzoyl)-4-hydroxy-phenoxy]-phenyl}-(4-hydroxy-phenoxycarbonyl)-amino]-acetic acid]",,,,,,,,,64.3,107
"O=C(O)CN(C(=O)Oc1ccc(O)cc1)c1cc(Cl)c(Oc2ccc(O)c(C(O)c3ccc(Cl)cc3)c2)c(Cl)c1 (centres unmarked) [Example 56, [(3,5-Dichloro-4-{3-[(4-chloro-phenyl)-hydroxy-methyl]-4-hydroxy-phenoxy}-phenyl)-(4-hydroxy-phenoxycarbonyl)-amino]-acetic acid]",,,,,,,,,20.4,13.4
